The subject of assay [1] is POMC neurons. Nature of the assay: Action potential frequency (firing rate) of POMC neurons, whole cell or loose cell-attached recordings. It is filed as cell-based, mouse. To be noted: for increase in frequency of action potentials (firing rate) in POMC neurons: fenfluramine 20 μM, loose-cell-attached, n=3, reversed with washout.
Assay [2] has as its system non-POMC neurons in the arcuate nucleus. Briefly: Membrane potential of non-fluorescent (non-POMC) neurons in the ARC. It is filed as cell-based, mouse.
Assay [3] relates to c-fos expression in the arcuate nucleus. Nature of the assay: c-fos expression in arcuate nucleus of Pomc-EGFP mice after IP injection. It is filed as in vivo, mouse. The settings on record: IP 5 μg/100 g, 2 hours. The text has this: Data were obtained from 5 mice in each group. For the Pomc-EGFP mice 5 anatomically matched arcuate nucleus sections (Franklin et al., The Mouse Brain in Stereotaxic Coordinates (Academic Press, San Diego, 1997) were counted from each animal, and images acquired using a Leica TSC confocal microscope (Grove et al., Neuroscience 100:731-40, 2000).

Assay [4] has as its system POMC neurons. Briefly: Whole cell recordings of membrane potential of EGFP-labeled POMC neurons in ARC slices. Format: cell-based, mouse.
Assay [5] has as its system c-fos expression in the arcuate nucleus. Nature of the assay: c-fos expression in the lateral arcuate after IP injection, rat. It is filed as in vivo. The settings on record: single IP injection.
Assay [6] has as its system GABAergic IPSCs in POMC neurons. Briefly: GABAergic IPSCs recorded in POMC neurons of ARC slices. Format: cell-based, mouse.
Another assay concerns hypothalamic explants. To be noted: Y2A; cited from earlier work.

Data on 13 molecules can be found in patent US7745604B2, “Upstream control elements of the proopiomelanocortin gene and their use” (Oregon Health & Science University, priority 2001, dated 2010).

Where “and” joins values, the source holds several entries; their conditions need not be identical. Equal values may be shown once. Entries after “also recorded” stand apart in the source; their conditions may differ. Read-outs that look alike come from different tables or passages of the source. Non-standard residues stand in square brackets, D forms with d. No end group written: not given here.

As to PYY3-36, the “increase in frequency of action potentials” value in the assay on POMC neurons [1] (PYY3-36 10 nM, loose cell-attached, reversible, n=8) is recorded as 5 fold. For the same molecule, the “increase in frequency of action potentials over control” value in the assay on POMC neurons [1] (PYY3-36 10 nM, whole-cell, n=22, P<0.05) is recorded as 93%. Further, in assay [2] (PYY3-36 25 nM, n=5, P<0.004), the “hyperpolarization of unidentified, presumably NPY-containing, non-POMC neurons” value amounted to 5.2±1.16 mV. In assay [3], the “increase in number of arcuate cells positive for c-fos vs saline” value was 1.8 fold and the “increase in proportion of POMC neurons that express c-fos vs saline” value is 2.6 fold. Moreover, the “number of arcuate cells positive for c-fos” value in assay [3] (n=5, P<0.05) is on record as 250±40. The “POMC neurons depolarized of cells tested” value in the assay with POMC neurons [4] (PYY3-36, whole cell) was 19 of the 22. Also, the “increase in number of cells positive for c-fos vs saline” value in assay [5] is recorded as 2 fold.

Consider `Clc1cncc(N2CCNCC2)n1` [MK 212, 6-Chloro-2-(1-piperazinyl)pyrazine], for which the “effect on resting membrane potential of POMC neurons” value (“effect on resting membrane potential” for short) in the assay with POMC neurons [4] is “depolarized POMC neurons”.

On to met-enkephalin, for which the “effect on spontaneous action potentials of POMC cells” value in the assay on POMC neurons [1] was “inhibits all action potentials; also recorded: prevented spontaneous action potential generation”. Moreover, the “effect on membrane potential of POMC neurons” value (“effect on membrane potential” for short) with POMC neurons [4] is listed as “hyperpolarizes POMC neurons”.

On to `NC1=N[C@H](O)[C@H]2[C@H]3O[C@]4(O)O[C@@H]([C@@H](O)[C@@]2(N1)[C@@H]4O)[C@]3(O)CO` [TTX, tetrodotoxin], for which the “effect on large amplitude IPSCs” value in assay [6] is listed as “abolished large IPSCs”.

Consider “Ghrelin: known appetite stimulant; agent known to increase feeding, caloric intake, and appetite (GSSFLSPEHQRVQQRKESKKPPAKLQPR; ends and bridges not checked; UniProt Q9UBU3 24-51, looked up)”, for which the “effect on frequency of IPSCs in POMC neurons” value in assay [6] (Ghrelin 50 nM, whole cell) was “increase in the frequency of IPSCs; also recorded: increases the frequency of spontaneous synaptic GABA release onto POMC neurons”. In addition, the “decrease of action potential firing rate of POMC neurons” value in the assay with POMC neurons [1] (Ghrelin 50 nM, loose-cell-attached mode, reverses with washout) came out at 50%. For the same molecule, in the assay on POMC neurons [4] (Ghrelin 50 nM, three minutes, whole cell, p<0.03), the “mean hyperpolarization of POMC neurons” value was determined as 1.47±0.7 mV. The “effect on membrane potential” value in the assay with POMC neurons [4] (Ghrelin, whole cell, FIG. 12b, 34 experiments) is “mildly hyperpolarizes POMC neurons”.

With picrotoxin, the “effect on IPSCs” value in assay [6] is on record as “blocked all IPSCs”.

In the case of `Clc1cccc(N2CCNCC2)c1` [mCPP, 1-(3-Chlorophenyl)piperazine], the “effect on resting membrane potential” value with POMC neurons [4] is on record as “depolarized POMC neurons”.

For D-Trp^8-γMSH (YVMGHFR[dW]DRFG), the “POMC neurons with increased IPSC frequency of cells tested” value in assay [6] (D-Trp8-γMSH 7 nM) is 3 of 4. In addition, the “effect on frequency of GABAergic IPSCs in POMC neurons” value in assay [6] (D-Trp8-γMSH 7 nM, FIG. 4b) is on record as “increases the frequency of GABAergic IPSCs”. For the same molecule, the “effect on frequency of action potentials” value in the assay with POMC neurons [1] (D-Trp8-γMSH 7 nM) is reported as “decreased the frequency of action potentials”. The “POMC neurons hyperpolarized of cells tested” value in the assay with POMC neurons [4] (D-Trp8-γMSH 7 nM) is 9 of 15. For the same molecule, the “effect on membrane potential” value with POMC neurons [4] (D-Trp8-γMSH, FIG. 4c) is “hyperpolarizes POMC neurons”.

As to `NCCc1c[nH]c2ccc(O)cc12` [serotonin], in the assay with POMC neurons [4] (serotonin receptor agonists bath-applied four minutes, whole cell, n=4-8 per dose), the “effect on resting membrane potential” value is on record as “increased the resting membrane potential (depolarized)”.

As for NPY, in assay [6], the “cells in which IPSCs were still inhibited in the presence of tetrodotoxin (TTX)” value was 6 of 6. In assay [6] (NPY 100 nM), the “decrease of frequency of GABAergic IPSCs” value is 55% and the “time to decrease of IPSC frequency” value was ≤ 3 min. Also, the “effect on frequency of mini IPSCs in POMC neurons” value in assay [6] (NPY, FIG. 4a) was “decreases the frequency of mini IPSCs”. The “average hyperpolarization of POMC neurons” value with POMC neurons [4] (NPY, n=3, all POMC neurons tested) is given as 9±6 mV.

With leptin: adipostatic hormone, in assay [6], the “cells in which IPSCs were still inhibited in the presence of tetrodotoxin (TTX)” value was 3 of 5. In assay [6] (leptin 100 nM), the “POMC cells with decreased IPSC frequency of cells tested” value is 5 out of 15. In assay [6] (leptin 100 nM, FIG. 3d, 5 cells), the “effect on frequency of IPSCs in POMC cells” value is listed as “decreased the frequency of IPSCs”. For the same molecule, in assay [6] (leptin 100 nM, in responding cells), the “decrease of frequency of GABAergic IPSCs” value stood at 25%. For the same molecule, the “effect on frequency of action potentials” value in the assay with POMC neurons [1] (leptin, FIG. 3a, 77 POMC neurons) is on record as “increases the frequency of action potentials”. In assay [2] (leptin, 13 cells tested), the “adjacent non-fluorescent cells with no effect” value was 5 and 5 of 13; the “non-POMC ARC neurons depolarized” value was 3; the “non-fluorescent ARC neurons hyperpolarized” value was 5. Moreover, the “mean±s.e.m. depolarization” value with POMC neurons [4] (100 nM leptin, n=45) was found to be 9.7±1.2 mV. In addition, the “reversal potential of small inward current causing depolarization” value with POMC neurons [4] (leptin 100 nM, slow voltage ramps) was “approximately −20 mV”. Further, in the assay with POMC neurons [4] (leptin 0.1-100 nM), the “POMC cells depolarized of cells tested” value is reported as 72 of 77; the “depolarization of POMC cells” value is 3-30 mV; the “time to depolarization after addition” value is 1 to 10 min and 2 to 10 min.

As for “N-acetyl (Leu^28, Leu^31) NPY (24-36) [Y2A]”, the “reduction of IPSC frequency” value in assay [6] (Y2A, n=8, P<0.004) is 44.4±9.3%. In addition, in the assay with hypothalamic explants, the “NPY release from hypothalamic explants” value is “significantly decreased NPY release” and the “α-MSH release from hypothalamic explants” value was “increase in α-MSH release”.

In the case of `CCNC(C)Cc1cccc(C(F)(F)F)c1` (stereo not drawn) [Fenfluramine], the figures for the “increase in frequency of action potentials (firing rate) in POMC neurons” value in the assay on POMC neurons [1] and in the assay on POMC neurons [1] (listed as d-FEN) were “two fold increase” and “doubling”, respectively. Besides, the “effect on membrane potential” value in the assay on POMC neurons [4] (fenfluramine, whole cell, dose dependent, n=4-8 per dose) is reported as “depolarized POMC neurons”.
